Usually IC50 stands for the point on the concentration scale where inhibition reaches its midpoint. Low readings indicate greater potency in that assay, high ones weaker potency in that assay. What is called AUC is the area under the concentration-time curve, a measure of exposure.

The target of series [1] is T1, ADP-ribosyl cyclase/cyclic ADP-ribose hydrolase 1 (Homo sapiens, UniProt P28907).
T1 sequence (P28907 whole entry): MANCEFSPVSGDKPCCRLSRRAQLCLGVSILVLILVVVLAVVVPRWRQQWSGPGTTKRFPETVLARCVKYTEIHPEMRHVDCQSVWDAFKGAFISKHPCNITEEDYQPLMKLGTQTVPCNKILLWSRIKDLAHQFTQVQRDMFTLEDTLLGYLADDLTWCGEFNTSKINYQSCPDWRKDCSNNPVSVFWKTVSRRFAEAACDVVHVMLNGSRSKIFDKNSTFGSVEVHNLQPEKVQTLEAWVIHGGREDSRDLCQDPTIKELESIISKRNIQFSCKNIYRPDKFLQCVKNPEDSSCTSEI
Description: Inhibition of human his tagged CD38 using N6-etheno-NAD as substrate by fluorescence microplate reader assay

Series [2] is described as follows: Drug exposure in mouse plasma assessed as AUC of drug at 3 mg/kg, po. The class given is ADME, organism-based. More on the design: dose 3 mg/kg, route po.

On to `COCCO[C@H]1CC[C@H](NC(=O)c2cc(-c3cncs3)cn3ccnc23)CC1`, for which, in series [1], the IC50 was over 100 µM.

With `COCCO[C@H]1CC[C@H](NC(=O)c2cc(-c3cncs3)nc3cc[nH]c23)CC1`, in series [2], the AUC turned out to be 6820 ng·h/mL.

With `COCCO[C@H]1CC[C@H](NC(=O)c2cc(-c3cncs3)cc3[nH]ccc23)CC1`, in series [2], the AUC worked out at 6980 ng·h/mL.

Consider `COCCO[C@H]1CC[C@H](NC(=O)c2cc(-c3ccccn3)cc3cc[nH]c23)CC1`, for which the IC50 in series [1] is over 100 µM.

Take `COCCO[C@H]1CC[C@H](CNC(=O)c2cc(-c3cncs3)cc3[nH]ccc23)CC1`: in series [1], the IC50 was 6 µM.

In series [1], `COCCO[C@H]1CC[C@H](NC(=O)c2cc(-c3cncs3)cn3cnnc23)CC1` displayed an IC50 of over 100 µM.

On to `COCCO[C@H]1CC[C@H](N(C)C(=O)c2cc(-c3cncs3)cc3[nH]ccc23)CC1`, for which, in series [1], the IC50 is over 100 µM.

On to `COCCO[C@H]1CC[C@H](NC(=O)c2cc(-c3cscn3)cc3cc[nH]c23)CC1`, for which the IC50 in series [1] was over 100 µM.

For the origin of these results see ChEMBL document CHEMBL5143723, “Orally Bioavailable Enzymatic Inhibitor of CD38, MK-0159, Protects against Ischemia/Reperfusion Injury in the Murine Heart” (J Med Chem, 2022).
